Literature values as cited in PubChem BioAssay AID1259409 (Chemical Carcinogenesis Research Information System (CCRIS), 2018).

Test system: rodent chemically induced tumor inhibition, incidence and multiplicity
Test: CCRIS tumor inhibitor studies

SMILES: O=C(/C=C/c1ccc(O)c(C2C(c3ccc(O)cc3)Oc3cc(O)ccc3C2c2cc(C3OC(c4ccc(O)cc4)C(C(=O)c4ccc(O)cc4O)C3Cc3ccc(O)cc3)c(O)cc2O)c1)c1ccc(O)cc1O (centres undefined)
- tumour outcome (control, treated, inhibition, significance) (Carcinogen: 7,12-DIMETHYLBENZ[A]ANTHRACENE, 57-97-6, Dose [Inhibitor]: 0, 16 NMOL 2/WK 1 HR PRIOR TO EACH PROMOTER DOSE FOR 20 WK (STUDY DURATION: 20 WK), Route [Inhibitor]: DERMAL, Species: MOUSE, Strain/Sex: ICR/FEMALE, Target Tissue: Type of Lesion: SKIN: TUMOR, Dose [Carcinogen]: 0.19 UMOL ONCE, Promoter: 12-0-TETRADECANOYLPHORBOL-13-ACETATE, 16561-29-8): 70%, 45%, 36%, not calculated

SMILES: O=C(NC(Cc1cc(=O)[nH]c2ccccc12)C(=O)O)c1ccc(Cl)cc1 (centres undefined)
- tumour outcome (control, treated, inhibition, significance) (Carcinogen: N-ETHYL-N'-NITRO-N-NITROSOGUANIDINE, 4245-77-6, Dose [Inhibitor]: 0, 20 MG/KG/D IN DIET FOR 16 WK (STUDY DURATION: 16 WK), Route [Inhibitor]: ORAL, Species: MOUSE, Strain/Sex: C57BL/MALE, Target Tissue: Type of Lesion: DUODENUM: TUMOR, Dose [Carcinogen]: 100 MG/L IN DRINKING WATER FOR 4 WK, Promoter: NONE USED): 22/33 (67%), 18/33 (55%), 18%, not significant
- tumour outcome (control, treated, inhibition, significance) (Carcinogen: N-ETHYL-N'-NITRO-N-NITROSOGUANIDINE, 4245-77-6, Dose [Inhibitor]: 0, 20 MG/KG/D IN DIET FOR DURATION OF STUDY (STUDY DURATION: 16 WK), Route [Inhibitor]: ORAL, Species: MOUSE, Strain/Sex: C57BL/MALE, Target Tissue: Type of Lesion: DUODENUM: TUMOR, Dose [Carcinogen]: 100 MG/L IN DRINKING WATER FOR 4 WK, Promoter: NONE): 22/33 (67%), 18/31 (58%), 13%, not significant
- tumour outcome (control, treated, inhibition, significance) (Carcinogen: N-ETHYL-N'-NITRO-N-NITROSOGUANIDINE, 4245-77-6, Dose [Inhibitor]: 0, 50 MG/KG/D IN DIET FOR 16 WK (STUDY DURATION: 16 WK), Route [Inhibitor]: ORAL, Species: MOUSE, Strain/Sex: C57BL/MALE, Target Tissue: Type of Lesion: DUODENUM: TUMOR, Dose [Carcinogen]: 100 MG/L IN DRINKING WATER FOR 4 WK, Promoter: NONE USED): 22/33 (67%), 14/33 (42%), 37%, p<0.05
- tumour outcome (control, treated, inhibition, significance) (Carcinogen: N-ETHYL-N'-NITRO-N-NITROSOGUANIDINE, 4245-77-6, Dose [Inhibitor]: 0, 50 MG/KG/D IN DIET FOR DURATION OF STUDY (STUDY DURATION: 16 WK), Route [Inhibitor]: ORAL, Species: MOUSE, Strain/Sex: C57BL/MALE, Target Tissue: Type of Lesion: DUODENUM: TUMOR, Dose [Carcinogen]: 100 MG/L IN DRINKING WATER FOR 4 WK, Promoter: NONE): 22/33 (67%), 14/31 (45%), 33%, not significant
- tumour outcome (control, treated, inhibition, significance) (Carcinogen: N-METHYL-N'-NITRO-N-NITROSOGUANIDINE, 70-25-7, Dose [Inhibitor]: 0, 20 MG/KG/D IN DIET FOR 34 WK BEGINNING 10 WK POST FIRST CARCINOGEN DOSE (STUDY DURATION: 44 WK), Route [Inhibitor]: ORAL, Species: RAT, Strain/Sex: WISTAR/MALE, Target Tissue: Type of Lesion: STOMACH: TUMOR, Dose [Carcinogen]: 80 MG/L IN DRINKING WATER FOR 28 WK, Promoter: NONE): 10/13 (77%), 8/13 (62%), 19%, not significant

SMILES: CC(C)c1cc(C(=O)O)c([O-])c(C(C)C)c1.CC(C)c1cc(C(=O)O)c([O-])c(C(C)C)c1.[Cu+2]
- tumour outcome (control, treated, inhibition, significance) (Carcinogen: 7,12-DIMETHYLBENZ[A]ANTHRACENE, 57-97-6, Dose [Inhibitor]: 500 NMOL IN 0.2 ML ACETONE APPLIED ONCE TO DORSAL SKIN 15 MIN PRIOR TO CARCINOGEN DOSE (STUDY DURATION: 20 WK), Route [Inhibitor]: DERMAL, Species: MOUSE, Strain/Sex: SENCAR/FEMALE, Target Tissue: Type of Lesion: SKIN: PAPILLOMA, Dose [Carcinogen]: 10 NMOL IN 0.2 ML ACETONE ONCE): 100%, 100%, 0%, not significant
- tumour outcome (control, treated, inhibition, significance) (Carcinogen: 7,12-DIMETHYLBENZ[A]ANTHRACENE, 57-97-6, Dose [Inhibitor]: 1000 NMOL IN 0.2 ML ACETONE APPLIED ONCE TO DORSAL SKIN 15 MIN PRIOR TO CARCINOGEN DOSE (STUDY DURATION: 20 WK), Route [Inhibitor]: DERMAL, Species: MOUSE, Strain/Sex: SENCAR/FEMALE, Target Tissue: Type of Lesion: SKIN: PAPILLOMA, Dose [Carcinogen]: 10 NMOL IN 0.2 ML ACETONE ONCE): 100%, 100%, 0%, not significant
- tumour outcome (control, treated, inhibition, significance) (Carcinogen: 7,12-DIMETHYLBENZ[A]ANTHRACENE, 57-97-6, Dose [Inhibitor]: 2000 NMOL IN 0.2 ML ACETONE APPLIED ONCE TO DORSAL SKIN 15 MIN PRIOR TO CARCINOGEN DOSE (STUDY DURATION: 20 WK), Route [Inhibitor]: DERMAL, Species: MOUSE, Strain/Sex: SENCAR/FEMALE, Target Tissue: Type of Lesion: SKIN: PAPILLOMA, Dose [Carcinogen]: 10 NMOL IN 0.2 ML ACETONE ONCE): 100%, 100%, 0%, not significant
- tumour outcome (control, treated, inhibition, significance) (Carcinogen: BENZO[A]PYRENE, 50-32-8, Dose [Inhibitor]: 100 NMOL IN 0.2 ML ACETONE APPLIED ONCE TO DORSAL SKIN 15 MIN PRIOR TO CARCINOGEN DOSE (STUDY DURATION: 20 WK), Route [Inhibitor]: DERMAL, Species: MOUSE, Strain/Sex: SENCAR/FEMALE, Target Tissue: Type of Lesion: SKIN: PAPILLOMA, Dose [Carcinogen]: 200 NMOL IN 0.2 ML ACETONE ONCE): 97%, 93%, 4%, not calculated
- tumour outcome (control, treated, inhibition, significance) (Carcinogen: BENZO[A]PYRENE, 50-32-8, Dose [Inhibitor]: 500 NMOL IN 0.2 ML ACETONE APPLIED ONCE TO DORSAL SKIN 15 MIN PRIOR TO CARCINOGEN DOSE (STUDY DURATION: 20 WK), Route [Inhibitor]: DERMAL, Species: MOUSE, Strain/Sex: SENCAR/FEMALE, Target Tissue: Type of Lesion: SKIN: PAPILLOMA, Dose [Carcinogen]: 200 NMOL IN 0.2 ML ACETONE ONCE): 97%, 93%, 4%, not calculated
- tumour outcome (control, treated, inhibition, significance) (Carcinogen: BENZO[A]PYRENE, 50-32-8, Dose [Inhibitor]: 1000 NMOL IN 0.2 ML ACETONE APPLIED ONCE TO DORSAL SKIN 15 MIN PRIOR TO CARCINOGEN DOSE (STUDY DURATION: 20 WK), Route [Inhibitor]: DERMAL, Species: MOUSE, Strain/Sex: SENCAR/FEMALE, Target Tissue: Type of Lesion: SKIN: PAPILLOMA, Dose [Carcinogen]: 200 NMOL IN 0.2 ML ACETONE ONCE): 97%, 100%, -3%, not calculated
- tumour outcome (control, treated, inhibition, significance) (Carcinogen: BENZO[A]PYRENE, 50-32-8, Dose [Inhibitor]: 2000 NMOL IN 0.2 ML ACETONE APPLIED ONCE TO DORSAL SKIN 15 MIN PRIOR TO CARCINOGEN DOSE (STUDY DURATION: 20 WK), Route [Inhibitor]: DERMAL, Species: MOUSE, Strain/Sex: SENCAR/FEMALE, Target Tissue: Type of Lesion: SKIN: PAPILLOMA, Dose [Carcinogen]: 200 NMOL IN 0.2 ML ACETONE ONCE): 97%, 90%, 7%, not calculated
- tumour outcome (control, treated, inhibition, significance) (Carcinogen: BENZO[A]PYRENE, 50-32-8, Dose [Inhibitor]: 4000 NMOL IN 0.2 ML ACETONE APPLIED ONCE TO DORSAL SKIN 15 MIN PRIOR TO CARCINOGEN DOSE (STUDY DURATION: 20 WK), Route [Inhibitor]: DERMAL, Species: MOUSE, Strain/Sex: SENCAR/FEMALE, Target Tissue: Type of Lesion: SKIN: PAPILLOMA, Dose [Carcinogen]: 200 NMOL IN 0.2 ML ACETONE ONCE): 97%, 96%, 0.3%, not calculated
